From US4092426A, “Novel aminobenzoic acid derivatives, process for preparing the same and pharmaceutical composition containing the same” (Chugai Seiyaku Kabushiki Kaisha, priority 1975, dated 1978)

Tests used:
triglyceride in liver = experiment: Action for decreasing triglyceride in liver (ethanol-induced); type: in vivo, Sprague Dawley strain female rats; conditions: Rattus norvegicus, po, 24 h, oral 100 mg/kg, 30 min before ethanol 6 g/kg, read-out: % Prevention (of increase in triglyceride content in the liver)
Protocol: Sprague Dawley strain female rats each weighing 170 - 200 g which had been fasted for 15 hours were divided into groups of 4 rats each. The rats were orally administered a different test compound in a dose of 100 mg/kg, and 30 minutes after the administration, orally administered ethanol in a dose of 6 g/kg. Twenty-four hours after the administration of ethanol, the liver of each rat was taken out and neutral lipid level in the liver was measured in a conventional manner to calculate the ratio of preventing an increase in triglyceride content in the liver. For a control group, ethanol and, for the other control group, a glucose aqueous solution equivalent in calorific value to the same amount of ethanol were used and the same manner as those of test groups, and for the positive control group, commercially available 2-mercaptopropionylglycine was used instead of the test compound.
*The % prevention was calculated by the following

[1] = system: Pseudomonas aeruginosa Pa-II; experiment: Activity for Protecting from Infection by Bucillus Pyocyaneous, with carbenicillin; type: in vivo; conditions: mouse, test compound (combination arm) 2 mg/head oral; for Number of Survival Animals/Number of Tested Animals: 54 hours
Protocol: As test animals, ddY strain male mice (5 week old) which were divided into groups of 9 members each were used. Each mouse was intraperitoneally administered with 10^6 Pseudomonas aeruginosa Pa-II, and 1.5 hours after the administeration, subcutaneously administered one shot of carbenicillin, an antibiotic. The test compound, disodium salt of N-2'-carboxyphenyl-4-chloroanthranilic acid, was orally administered once a day in a dose of 2 mg/head one and two days before the inoculation, respectively. The activity of the test compound was evaluated by observing the test animals for 54 hours after the inoculation.

[2] = system: plaque forming cells (PFC) in the spleen; experiment: Activity for Recovering Immune Depletion by cortisone: plaque forming cells (PFC) in the spleen; type: in vivo, IV CS strain male mice; conditions: cortisone 60 mg/kg i.p. alone
Protocol: As test animals, IV CS strain male mice (5 week old) were used by dividing them into groups of 5 members each. Each mouse was intraperitoneally administered with cortisone in a dose of 60 mg/kg once a day for 5 days. Three days after the first administration, the sensitization with an antigen, sheep red blood cell (SRBC), was made by injecting the antigen into the mouse through the tail vein. Each mouse was orally administered with the test compound, disodium salt of N-2'-carboxyphenyl-4-chloroanthranilic acid, a day after the sensitization. Five days after the sensitization, the number of plaque forming cells (PFC) in the spleen was measured in a usual manner.

[3] = system: concentration of bilirubin in the blood; experiment: Bilirubin Excretion Activity; type: in vivo, Sprague Dawley strain female rats; conditions: rat, oral 100 mg/kg; bilirubin i.v.; 20 min after; ** P<0.02
Protocol: Sprague Dawley strain female rats each weighing 160 - 200 g which had been fasted for 15 hours were divided into groups of 6 rats each. The rats were orally administered with a different test compound in a dose of 100 mg/kg, and 60 minutes after the administration, each of the rats was injected through the tail vein with […] of bilirubin. Twenty minutes after the injection, the blood of each rat was sampled from the heart and the concentration of bilirubin in the blood was determined in a conventional manner.
As control, a physiological saline solution was used instead of the test compound.

plaque forming cells = experiment: Increase in Number of Plaque Forming Cells after sensitization with SRBC (Jerne's plaque method); type: in vivo, Sprague Dawley strain male rats
Protocol: (§1) Sprague Dawley strain male rats weighing 200 - 220 g which were divided into 7 groups of 5 or 6 rats each were used as test animals.
(§2) The six groups were orally administered by one shot with the test compound, N-2'-carboxyphenyl-4-chloroanthranilic acid in a dose of 100 mg/kg on six different days, a day before the sensitization, on the date, a day after, two days after, three days after and four days after the sensitization with an antigen (SRBC: Sheep red blood cell). The SRBC was intraveneously injected in the rat through the tail vein in an amount of 1 ml as a 2% aqueous suspension. For control groups, a physiological saline solution was used in the same amount and in the same manner as those of the test groups on the day of sensitization.
(§3) Five days after the sensitization, the rats were sacrificed and the spleen of each of the rats was taken out and the blood was sampled.
(§4) The number of plaque forming cells and titers in blood were determined by the Jerne's plaque method and a hemolysing method, respectively.

Acute Toxicity = experiment: Acute Toxicity; design: species or system Wistar-Imamichi strain male and female rats; conditions: rat, in vivo, po, suspension in 5% gum arabi
Protocol: Acute toxicity of N-2'-carboxyphenyl-4-chloroanthranilic acid was determined using Wistar-Imamichi strain male and female rats (11 week old) as test animals. The test compound was orally administered as a suspension in a 5% gum arabi aqueous solution.

antibody in blood = experiment: Titer of Antibody in Blood after sensitization with SRBC (hemolysing method); type: in vivo, Sprague Dawley strain male rats; conditions: administered on the day and a day after the sensitization with SRBC
Protocol: as §1, §2, §3, §4

[4] = system: concentration of BSP in blood; experiment: Bromosulfophthalein (BSP) Test; type: in vivo, Sprague Dawley strain female rats; conditions: rat, oral 100 mg/kg; BSP 28 mg/head i.v.; 30 min after; ** P<0.01
Protocol: Sprague Dawley strain female rats each weighing 150 - 190 g which had been fasted for 15 hours were divided into groups of 4 rats each. The rats were orally administered a different test compound in a dose of 100 mg/kg, and 60 minutes after the administration, each of the rats was injected through the tail vein with 28 mg/head of BSP. Thirty minutes after the injection, the blood of each rat was sampled from the heart and the concentration of BSP was determined in a conventional colorimetric manner. As control, a physiological saline solution was orally administered instead of the test compound.

[5] = system: concentration of ICG in the blood; experiment: Indocyanogree (ICG) Test; type: in vivo, Sprague Dawley strain male rats; conditions: rat, oral 100 mg/kg; ICG 2 mg/head i.v.; 15 min after; ** P<0.02
Protocol: Sprague Dawley strain male rats weighing 180 - 210 g which had been fasted for 15 hours were divided into groups of 4 rats each. The rats were orally administered a different test compound in a dose of 100 mg/kg, and 60 minutes after the administration, each of the rats was injected through the tail vein with 2 mg/head of ICG. Fifteen minutes after the injection, the blood of each rat was sampled from the heart and the concentration of ICG in the blood was determined in a conventional colorimetric manner. As control, a physiological saline solution was used.

Molecule CC(S)C(=O)NCC(=O)O (stereo not shown) [2-mercaptopropionylglycine, reference compound] has an inhibition in vivo at 100 mg/kg (triglyceride in liver) of 9.3%.

For CC1(C)S[C@@H]2[C@H](NC(=O)C(C(=O)O)c3ccccc3)C(=O)N2[C@H]1C(=O)O (stereo partly shown) [Carbenicillin, carbenicillin], the “Number of Survival Animals/Number of Tested Animals” value ([1]; Carbenicillin 10 mg/head s.c.) was 0/9, the “Number of Survival Animals/Number of Tested Animals” value ([1]; Carbenicillin 20 mg/head s.c.) was 2/9 and the “Number of Survival Animals/Number of Tested Animals” value ([1]; Carbenicillin 40 mg/head s.c.) was 9/9. For the same molecule, the “ED50 (dose of carbenicillin)” value ([1]; 10^6 Pseudomonas aeruginosa Pa-II i.p.) was 24.1 mg/head.

With C[C@]12CCC(=O)C=C1CC[C@@H]1[C@@H]2C(=O)C[C@@]2(C)[C@H]1CC[C@]2(O)C(=O)CO [Cortisone, cortisone, reference compound] the “number of PFC per spleen vs control without cortisone” value [2] was “reduced to one third”.

Work on Cc1ccc(C)c(C(=O)O)c1Nc1cc(Cl)ccc1C(=O)O [N-2'-carboxy-3',6'-dimethylphenyl-4-chloroanthranilic acid] yielded an inhibition in vivo at 100 mg/kg (triglyceride in liver) of 45.8%.

With Cc1ccc(Nc2cc(Cl)ccc2C(=O)O)c(C(=O)O)c1 [N-2'-carboxy-4'-methylphenyl-4-chloroanthranilic acid] the inhibition in vivo at 100 mg/kg (triglyceride in liver) was 53.2%.

For O=C(O)c1ccc(Cl)cc1Nc1cc(Cl)ccc1C(=O)O [N-2'-carboxy-5'-chlorophenyl-4-chloroanthranilic acid], the inhibition in vivo at 100 mg/kg (triglyceride in liver) was 57.2%.

For Cc1cccc(C(=O)O)c1Nc1cc(Cl)ccc1C(=O)O [N-2'-carboxy-6'-methylphenyl-4-chloroanthranilic acid], the inhibition in vivo at 100 mg/kg (triglyceride in liver) was 25.2%.

Cc1c(Cl)ccc(C(=O)O)c1Nc1ccccc1C(=O)O [N-2'-carboxyphenyl-4-chloro-3-methylanthranilic acid] showed an inhibition in vivo at 100 mg/kg (triglyceride in liver) of 40.5%.

With O=C(O)c1ccccc1Nc1cc(Cl)ccc1C(=O)O [N-2'-carboxyphenyl-4-chloroanthranilic acid] the “% Remain of Bilirubin” value [3] was 39.7 ± 13.3%, the “Number of plaque forming cell/10^6 cells” value (plaque forming cells; 100 mg/kg oral, day 0 based on the sensitization, P<0.01) was 193.4 ± 26.6 cell/10^6 cells and the “Number of plaque forming cell/10^6 cells” value (plaque forming cells; 100 mg/kg oral, day +1 based on the sensitization, P<0.01) was 316.8 ± 38.2 cell/10^6 cells. For the same molecule, the “Number of plaque forming cell/10^6 cells” value (plaque forming cells; 100 mg/kg oral, day +2 based on the sensitization) was 76.5 ± 16.3 cell/10^6 cells, the “Number of plaque forming cell/10^6 cells” value (plaque forming cells; 100 mg/kg oral, day +3 based on the sensitization) was 101.0 ± 11.2 cell/10^6 cells and the “Number of plaque forming cell/10^6 cells” value (plaque forming cells; 100 mg/kg oral, day +4 based on the sensitization) was 95.5 ± 35.3 cell/10^6 cells. The “Number of plaque forming cell/10^6 cells” value (plaque forming cells; 100 mg/kg oral, day -1 based on the sensitization, control 49.7 ± 16.0) was 93.2 ± 28.6 cell/10^6 cells, the “increase in number of plaque forming cells relative to control group” value (plaque forming cells; 100 mg/kg oral, maximum vs control) was “about six times as much as the value of the control group” and the “increase in the number of plaque forming cells” value (plaque forming cells; administered on the date and a day after the sensitization) was “significant increase”. It also gave an LD50 (Acute Toxicity; female rat) of 2600 mg/kg, an LD50 (Acute Toxicity; male rat) of 2100 mg/kg and an inhibition in vivo at 100 mg/kg (triglyceride in liver) of 67.1%. For the same molecule, the “increase in titers in blood” value (antibody in blood) was “significant increase”, the “% Remain of BSP” value [4] was 17.3±8.4% and the “% Remain of ICG” value [5] was 5.1 ± 0.2%.

With O=C(O)c1ccccc1Nc1ccc(Cl)cc1C(=O)O [N-2'-carboxyphenyl-5-chloroanthranilic acid] the inhibition in vivo at 100 mg/kg (triglyceride in liver) was 30%.

In the case of Cc1ccc(Nc2ccccc2C(=O)O)c(C(=O)O)c1 [N-2'-carboxyphenyl-5-methylanthranilic acid], the inhibition in vivo at 100 mg/kg (triglyceride in liver) is reported as 20.1%.
